Here are results for 4 compounds from US4622301A, “2-Oxocarboxylic acid reductase and its preparation” (BASF Aktiengesellschaft, priority 1983, dated 1986).

Experiment [1] has as its system 2-oxocarboxylic acid reductase. Put plainly: Relative rates of reduction of 2-oxocarboxylic acids, enzyme from P. mirabilis. Type of experiment: biochemical, Proteus mirabilis. The settings on record: for Relative rates (of reduction): P. mirabilis enzyme, rate for phenylpyruvate taken as 1.
Experiment [2] concerns 2-oxocarboxylic acid reductase. Put plainly: Relative rates of reduction of 2-oxocarboxylic acids, enzyme from P. vulgaris. Format: biochemical, Proteus vulgaris. As to conditions: rate for phenylpyruvate taken as 1. As to the method: In an electrochemical cell, 25 ml of a solution of 100 mM potassium phosphate buffer at pH 7.0, 4 mM methylviologen and 40 mM phenylpyruvate were reduced with 0.5 mg of 2-oxoacid reductase according to Example 3 at a voltage of -700 mV, against a standard calomel electrode. The current of 5.8 mA decreased sharply after 9 hours. According to HPLC analysis, the reaction solution contained 88% of the phenyllactic acid expected. The solution was acidified to pH 1.8 with dilute sulfuric acid and then extracted with ether. […] A pure commercial preparation of (2S)-sodium phenyllactate gave a value of -21.4°, measured under the same conditions. (R)-mandelic acid and (R)-2-hydroxy-4-methylpentanoate were prepared by a similar method.
3-Oxocarboxylic acids and hydroxyacetone are not reduced.

In experiment [3] the test system is 2-oxocarboxylic acid reductase. Put plainly: Initial rates with increasing concentrations of oxidized methylviologen, P. mirabilis enzyme. Format: biochemical, Proteus mirabilis. The settings on record: for Initial rate: P. mirabilis, 2-oxo-4-methylpentanoate, pH 7.0. As to the method:
(§1) In the presence of increasing concentrations of MV^++ and 0.15 mM MV^+, the initial rates show the following behavior:
(§2) (0.3 ml of 0.1M trisacetate buffer of pH 7.0, 2 μmole of 2-oxo-4-methylpentanoate, the same amount of enzyme in each case, 0.2 mM of reduced methylviologen and the concentrations of oxidized methylviologen stated in the table were incubated in a 2 mm cell.)

Experiment [4] has as its system 2-oxocarboxylic acid reductase. Put plainly: Initial rates with increasing concentrations of oxidized methylviologen, P. vulgaris enzyme. The settings on record: 2-oxo-4-methylpentanoate, pH 7.0. Type of experiment: biochemical, Proteus vulgaris. Here is the method: as §1, §2
Experiment [5] deals with 2-oxocarboxylic acid reductase.

As for `CC(C)(CO)C(=O)C(=O)O` [2-Oxopantoate], the “Relative rates (of reduction)” value in experiment [1] was 0.07; in experiment [2], 0.04.
`C[n+]1ccc(-c2cc[n+](C)cc2)cc1` [MV^++, methylviologen]: in experiment [3], the “effect on the activity of the enzyme (in words)” value is reported as “can be increased”. Further, the Initial rate in experiment [3] (MV++ 0.01 mM) came to 18.1 U/ml; in experiment [3] (MV++ 0.08 mM) it was 41.9 U/ml; in experiment [3] (MV++ 0.16 mM) it was 46.0 U/ml; in experiment [3] (MV++ 0.75 mM), 62.0 U/ml; in experiment [4] (MV++ 0.01 mM), 13.3 U/ml; in experiment [4] (MV++ 0.08 mM), 24.4 U/ml. Also, the Initial rate in experiment [4] (MV++ 0.16 mM) amounted to 31.3 U/ml; in experiment [4] (MV++ 0.75 mM) it was 41.5 U/ml.
On to `O=C(O)CN(CCN(CC(=O)O)CC(=O)O)CC(=O)O` [EDTA], for which the “effect on the activity of the enzyme” value in experiment [5] is reported as “not affected”.
Regarding `CC(=O)CO` [Hydroxyacetone], in experiment [1], the “Reduction by the enzyme (in words)” value is on record as “not reduced” and the “Relative rates (of reduction)” value turned out to be 0.
